# In patent US11872260B2, “Mint essential oils inhibit HRASQ61L mutant keratinocyte activity and prevent skin carcinogenesis” (ACADEMIA SINICA, priority 2018, dated 2024):
# Assays:
# [1] = tested on: B16 melanoma cells; assay: Depigmentation assay (melanin absorbance 405 nm); assay type: cell-based, Murine; conditions: 24 h; 15 and 25 μg/mL LM-EO, 100 μg/mL KA
# Method: B16 cells (1×10^6 cells/15-cm dish) were treated with vehicle (0.5% DMSO), 15 and 25 μg/mL LM-EO (LM15 and LM25), or 100 μg/mL kojic acid (KA100) for 6, 12, 24 h. After washing with PBS for two times, the cells were harvested by cell scrapper and centrifugation. The cell pellets were then taken a photo before dissolved in 1 N NaOH at 60° C. for 1 h. The volume of NaOH used to dissolve the cell pellets were adjusted based on the cell populations to yield the equal concentration. The absorbance was then measured at 405 nm.
# [2] = tested on: tyrosinase in B16 cells; assay: Western blot of tyrosinase in B16 cells; assay type: cell-based, Murine; conditions: 6, 12, 24 h
# Method: (§1) Cells were treated with EOs or compounds at the indicated concentrations and lysed in RIPA lysis buffer. Protein concentrations were measured by DC protein assay (Bio-Rad, United States). Western blotting was performed as described by Shyur et al. Protein samples were separated by 10 or 12% SDS-PAGE, and electro-transferred onto PVDF membranes (Merck Millipore, United States). The membranes were blocked with 5% skimmed milk in TBST for 1 h at room temperature. After washing the membranes three times with TBST, membranes were incubated with appropriate primary antibodies overnight (12-16 h) at 4° C. The membranes were washed with TBST three times, followed by incubation with horseradish peroxidase (HRP)-conjugated anti-mouse IgG or anti-rabbit IgG secondary antibodies for 2 h at room temperature. Reactive protein bands were visualized using enhanced chemiluminescent detection reagents (GE Healthcare, United States) and exposed to chemiluminescence light film (GE Healthcare, United States). The expression levels of targeted proteins were quantified by ImageJ software (National Institutes of Health, United States).
# [3] = tested on: DMBA/TPA/PLX4032-induced skin papilloma; assay: Two-stage skin carcinogenesis, DMBA/TPA accelerated by PLX4032; assay type: in vivo, FVB/NJNarl mice
# Method: Female FVB/NJNarl mice (5-6 weeks old) were randomized into 9 groups, each group contained 8 mice. Mice had their back hair shaved three days before topical application of 25 μg 7,12-dimethylbenz[a]anthracene (DMBA) in 200 μL acetone. The first week after tumor initiation, 4 μg of 12-O-tetradecanoylphorbol-13-acatate (TPA) in 200 μL acetone was topically applied twice a week to the shaved back skin for 12 weeks. Mice were treated with the indicated concentrations of mint EOs or compounds (in 200 μL acetone) twice a week by topical application the day after TPA treatment for 12 weeks. Tumor size of more than 1 mm diameter was counted every week. After mice were sacrificed, internal organs (heart, liver, spleen, lung, and kidneys), serum, skin and papillomas were collected and fixed with 10% formalin or stored at −80° C.
# [4] = tested on: patients; conditions: patients treated with PLX4032; cited from earlier work
# [5] = tested on: cdc2 in PDV cells; assay: Western blot p-cdc2/cdc2; assay type: cell-based, mouse; conditions: 24 h; KWM-EO 75 μg/mL, LM-EO 75 μg/mL, L+C 60 μg/mL, PLX4032 0.5 μM, each alone
# Method: as §1
# [6] = tested on: epidermis of mouse dorsal skin; assay: Histopathology (H&E) of mouse skin from two-stage skin carcinogenesis; assay type: in vivo, FVB mice; conditions: intraperitoneal PLX4032 in DMBA/TPA skin
SMILES,depigmentation effect (melanin) [1],tyrosinase expression [2],"swelling of the spleen, effect of PLX4032 ([3]; PLX4032 in DMBA/TPA mice)","tumor multiplicity, effect of PLX4032 on DMBA/TPA mice ([3]; intraperitoneal PLX4032)",patients developing squamous cell carcinoma (SCC) and keratoacanthoma (KA) [4],"ratio of phospho-cdc2 to cdc2, increase vs vehicle [5] [fold]","proliferation and hyperplasia of the epidermis, effect of PLX4032 [6]"
"O=c1cc(CO)occ1O [KA, Kojic acid]",depigmentation effect with statistical significance,time-dependently inhibited tyrosinase expression,–,–,–,–,–
"CCCS(=O)(=O)Nc1ccc(F)c(C(=O)c2c[nH]c3ncc(-c4ccc(Cl)cc4)cc23)c1F [PLX4032, vemurafenib]",–,–,exacerbated the swelling of the spleen,greatly increased the tumor multiplicity,20-30%,2.1,exacerbated the proliferation and hyperplasia of the epidermis
